Results on eight compounds are retold here after ChEMBL document CHEMBL5154842, “Unique Carbazole-Oxadiazole Derivatives as New Potential Antibiotics for Combating Gram-Positive and -Negative Bacteria” (J Med Chem, 2022).

Values after ≈ are worked out from the molar mass of the structure shown.

What all share (assay type): functional
Test [1] has as its system Staphylococcus aureus. As to the kind of experiment: Antibacterial activity against methicillin-resistant Staphylococcus aureus N315 assessed as inhibition of bacterial growth incubated for 24 hrs by CLSI protocol based two fold serial dilution method.
In the next test the test system is Enterococcus faecalis. As to the kind of experiment: Antibacterial activity against Enterococcus faecalis assessed as inhibition of bacterial growth incubated for 24 hrs by CLSI protocol based two fold serial dilution method.
The subject of test [2] is Staphylococcus aureus. Kind of test: Antibacterial activity against Staphylococcus aureus assessed as inhibition of bacterial growth incubated for 24 hrs by CLSI protocol based two fold serial dilution method.
In test [3] the test system is Staphylococcus aureus. As to the kind of experiment: Antibacterial activity against Staphylococcus aureus 25923 assessed as inhibition of bacterial growth incubated for 24 hrs by CLSI protocol based two fold serial dilution method.
The test system of test [4] is Staphylococcus aureus. Kind of test: Antibacterial activity against Staphylococcus aureus 29213 assessed as inhibition of bacterial growth incubated for 24 hrs by CLSI protocol based two fold serial dilution method.
A further test has as its system Klebsiella pneumoniae. Kind of test: Antibacterial activity against Klebsiella pneumonia assessed as inhibition of bacterial growth incubated for 24 hrs by CLSI protocol based two fold serial dilution method.
The subject of test [5] is Escherichia coli. Kind of test: Antibacterial activity against Escherichia coli assessed as inhibition of bacterial growth incubated for 24 hrs by CLSI protocol based two fold serial dilution method.
In test [6] the test system is Escherichia coli. Kind of test: Antibacterial activity against Escherichia coli 25922 assessed as inhibition of bacterial growth incubated for 24 hrs by CLSI protocol based two fold serial dilution method.
Test [7] has as its system Pseudomonas aeruginosa. Kind of test: Antibacterial activity against Pseudomonas aeruginosa assessed as inhibition of bacterial growth incubated for 24 hrs by CLSI protocol based two fold serial dilution method.
Test [8] concerns Pseudomonas aeruginosa. Kind of test: Antibacterial activity against Pseudomonas aeruginosa ATCC 27853 assessed as inhibition of bacterial growth incubated for 24 hrs by CLSI protocol based two fold serial dilution method.
A further test concerns Acinetobacter baumannii. As to the kind of experiment: Antibacterial activity against Acinetobacter baumannii assessed as inhibition of bacterial growth incubated for 24 hrs by CLSI protocol based two fold serial dilution method.

The MIC is the smallest concentration in the dilution series that meets the test's criterion for growth inhibition. As for `Fc1ccccc1COc1cccc2c1c1ccccc1n2Cc1nnc(S)o1`, the minimum inhibitory concentration (MIC) in the test on Staphylococcus aureus [1] is 16 µg/mL (≈ 39.5 µM); in the test on Enterococcus faecalis, 256 µg/mL (≈ 631 µM); in the test with Staphylococcus aureus [2], 256 µg/mL (≈ 631 µM); in the test with Staphylococcus aureus [3], 256 µg/mL (≈ 631 µM); in the test with Staphylococcus aureus [4], 64 µg/mL (≈ 158 µM); in the test with Klebsiella pneumoniae it was 32 µg/mL (≈ 78.9 µM). Further, the minimum inhibitory concentration (MIC) with Escherichia coli [5] stood at 128 µg/mL (≈ 316 µM); in the test on Escherichia coli [6], 16 µg/mL (≈ 39.5 µM); in the test on Pseudomonas aeruginosa [7], 256 µg/mL (≈ 631 µM); with Pseudomonas aeruginosa [8] it was 0.25 µg/mL (≈ 0.617 µM); in the test on Acinetobacter baumannii, 64 µg/mL (≈ 158 µM).
Turning to `CCSc1nnc2c3ccccc3n(Cc3nnc(S)o3)c2n1`, the minimal inhibitory concentration (MIC) in the test on Staphylococcus aureus [1], with Enterococcus faecalis, with Staphylococcus aureus [2], with Staphylococcus aureus [3], with Staphylococcus aureus [4] and with Klebsiella pneumoniae was 256 µg/mL (≈ 743 µM) each time. For the same compound, the MIC in the test with Escherichia coli [5], in the test with Escherichia coli [6], with Pseudomonas aeruginosa [7], with Pseudomonas aeruginosa [8] and in the test with Acinetobacter baumannii was 256 µg/mL (≈ 743 µM) each time.
As for `CC(C)=CCOc1cccc2c1c1ccccc1n2Cc1nnc(S)o1`, the MIC in the test on Staphylococcus aureus [1] came out at 1 µg/mL (≈ 2.74 µM); in the test with Enterococcus faecalis it was 4 µg/mL (≈ 10.9 µM); in the test on Staphylococcus aureus [2] it was 256 µg/mL (≈ 700 µM); with Staphylococcus aureus [3] it was 4 µg/mL (≈ 10.9 µM); with Staphylococcus aureus [4], 4 µg/mL (≈ 10.9 µM); in the test on Klebsiella pneumoniae, 4 µg/mL (≈ 10.9 µM). Moreover, the MIC in the test on Escherichia coli [5] came out at 8 µg/mL (≈ 21.9 µM); with Escherichia coli [6], 4 µg/mL (≈ 10.9 µM); in the test with Pseudomonas aeruginosa [7], 256 µg/mL (≈ 700 µM); in the test on Pseudomonas aeruginosa [8] it was 2 µg/mL (≈ 5.47 µM); with Acinetobacter baumannii, 8 µg/mL (≈ 21.9 µM).
With `Sc1nnc(Cn2c3ccccc3c3c(OCc4ccc(Cl)cc4)cccc32)o1`, the minimal inhibitory concentration (MIC) with Staphylococcus aureus [1], in the test on Enterococcus faecalis, with Staphylococcus aureus [2], with Staphylococcus aureus [3], in the test on Staphylococcus aureus [4] and in the test with Klebsiella pneumoniae was 256 µg/mL (≈ 607 µM) in each case. In addition, the MIC in the test on Escherichia coli [5] came out at 256 µg/mL (≈ 607 µM); in the test with Escherichia coli [6] it was 4 µg/mL (≈ 9.48 µM); with Pseudomonas aeruginosa [7], 256 µg/mL (≈ 607 µM); in the test on Pseudomonas aeruginosa [8] it was 256 µg/mL (≈ 607 µM); in the test on Acinetobacter baumannii it was 256 µg/mL (≈ 607 µM).
With `C=CCSc1nnc2c3ccccc3n(Cc3nnc(S)o3)c2n1`, the MIC with Staphylococcus aureus [1], in the test on Enterococcus faecalis, in the test on Staphylococcus aureus [2], with Staphylococcus aureus [3], in the test with Staphylococcus aureus [4] and in the test on Klebsiella pneumoniae was 256 µg/mL (≈ 718 µM) throughout. Also, the MIC in the test with Escherichia coli [5], in the test with Escherichia coli [6], in the test with Pseudomonas aeruginosa [7], in the test on Pseudomonas aeruginosa [8] and with Acinetobacter baumannii was 256 µg/mL (≈ 718 µM) throughout.
For the compound `Sc1nnc(Cn2c3ccccc3c3c(OCCN4CCOCC4)cccc32)o1`, the MIC in the test with Staphylococcus aureus [1] came out at 128 µg/mL (≈ 312 µM); in the test on Enterococcus faecalis, 64 µg/mL (≈ 156 µM); in the test on Staphylococcus aureus [2], 128 µg/mL (≈ 312 µM); in the test with Staphylococcus aureus [3], 128 µg/mL (≈ 312 µM); in the test on Staphylococcus aureus [4], 32 µg/mL (≈ 78 µM); with Klebsiella pneumoniae, 64 µg/mL (≈ 156 µM). For the same compound, the minimum inhibitory concentration (MIC) worked out at 64 µg/mL (≈ 156 µM) with Escherichia coli [5]; 128 µg/mL (≈ 312 µM) in the test with Escherichia coli [6]; 256 µg/mL (≈ 624 µM) in the test with Pseudomonas aeruginosa [7]; 64 µg/mL (≈ 156 µM) with Pseudomonas aeruginosa [8]; 128 µg/mL (≈ 312 µM) with Acinetobacter baumannii.
Consider `CCCCCCCCCCCCOc1cccc2c1c1ccccc1n2Cc1nnc(S)o1`, for which the MIC was 256 µg/mL (≈ 550 µM) in the test on Staphylococcus aureus [1]; 256 µg/mL (≈ 550 µM) in the test with Enterococcus faecalis; 256 µg/mL (≈ 550 µM) in the test with Staphylococcus aureus [2]; 256 µg/mL (≈ 550 µM) in the test on Staphylococcus aureus [3]; 128 µg/mL (≈ 275 µM) in the test with Staphylococcus aureus [4]; 256 µg/mL (≈ 550 µM) in the test with Klebsiella pneumoniae. Moreover, the MIC in the test with Escherichia coli [5], with Escherichia coli [6], in the test on Pseudomonas aeruginosa [7], in the test on Pseudomonas aeruginosa [8] and in the test with Acinetobacter baumannii was 256 µg/mL (≈ 550 µM) in each case.
Turning to `CCCOc1cccc2c1c1ccccc1n2Cc1nnc(S)o1`, the minimal inhibitory concentration (MIC) in the test on Staphylococcus aureus [1] was 2 µg/mL (≈ 5.89 µM); with Enterococcus faecalis, 2 µg/mL (≈ 5.89 µM); in the test on Staphylococcus aureus [2], 128 µg/mL (≈ 377 µM); with Staphylococcus aureus [3], 2 µg/mL (≈ 5.89 µM); with Staphylococcus aureus [4], 4 µg/mL (≈ 11.8 µM); in the test on Klebsiella pneumoniae it was 4 µg/mL (≈ 11.8 µM). The MIC in the test on Escherichia coli [5] is 4 µg/mL (≈ 11.8 µM); in the test with Escherichia coli [6], 1 µg/mL (≈ 2.95 µM); with Pseudomonas aeruginosa [7], 256 µg/mL (≈ 754 µM); in the test with Pseudomonas aeruginosa [8] it was 4 µg/mL (≈ 11.8 µM); in the test on Acinetobacter baumannii, 0.25 µg/mL (≈ 0.737 µM).
